Assay results reported in patent US20240141445A1, “NOVEL METHOD FOR POOLED INTRON TAGGING FOR REAL TIME DRUG SCREENING” (CeMM - Forschungszentrum für Molekulare Medizin GmbH, priority 2019, published 2024).

System: GFP-tagged proteins in HAP1 cells
Experiment: GFP intron-tagged cell pool / arrayed clones, time-lapse imaging of protein levels and localization
Format: cell-based
Procedure: For the generation of lentiviral particles, HEK293T cells were transiently transfected with the intron-targeting library and packaging plasmids psPAX2, pMD2.G using PEI transfection. After 12 h the media was replaced with IMDM supplemented with 10% FBS and P/S. Viral supernatant was collected 48 h after transfection and stored at −80° C. HAP1 cells were transduced with virus and selected with puromycin for three days. Multiplicity of infection (MOI) was 0.2 and transduction was done at a coverage of 500×. After puromycin selection, cells were grown for one day in media without puromycin before being seeded for transfection (8 million cells per 15 cm dish, 48 million cells in total). One day after seeding, each dish was co-transfected with 20 μg pX330 expressing Cas9-BSD and the generic sgRNA and 10 μg EGFP donor plasmid with 90 μl Turbofection in 2.5 ml OptiMEM as described by the manufacturer. Transfection efficiency was approximately 10% as determined by a transfection done in parallel with pX330 Cas9-mCherry and the EGFP donor plasmid using the same ratio. The next day, cells were subjected to a transient selection using Blasticidin (10 μg/ml) for 24 h. After selection, cells were maintained in full media without Blasticidin and sorted five days after transfection by flow cytometry using a Sony Cell Sorter SH800ZD. 0.03% cells were GFP-positive and in total 24,300 of those GFP-positive cells were sorted and the cell population was expanded for 7 days before DNA was isolated to determine sgRNA abundance in the cell population.
To obtain clonal cell lines, cells were seeded at a concentration of 0.7 cells per well in 96-well cell culture plates. After 9 days of clonal expansion, 768 colonies were harvested using trypsin and cell suspensions were transferred in equal amounts to eight 96-well imaging plates (Perkin Elmer CellCarrier Ultra) and eight corresponding 96-well cell culture plates. After 24 h, cells on the imaging plates were imaged on a Perkin Elmer Opera Phenix High Content Screening System (5 fields of view per well, 63× water-immersion objective, confocal mode, excitation: 488 nm, […], 700 ms). Images were processed using Cell Profiler. To identify the intron-targeting sgRNAs expressed in imaged cells, multiplexed amplicon sequencing of the sgRNA regions was performed in the corresponding clones on the eight 96-well cell culture plates. Cells were lysed and cell lysates were used for PCR to amplify the sgRNA region in each clone using barcoded primers flanking the sgRNA region (36 different 5-mers added to the 5′end of the forward primer and 24 different 5-mers added to the 5′end of the reverse primer, 768 of all possible 864 combinations were used). PCR reactions were pooled and column purified before being send for sequencing by a commercial sequencing service. NGS reads were demultiplexed using Cutadapt (see Martin, M. EMBnet. journal, [S.I.], v. 17, n. 1, p. pp. 10-12, may 2011) and sgRNA read counts for each individual well were obtained using MAGeCK (see, Li (2014) Genome Biol 15, 554 (2014). For further analysis clones were excluded, for which either no cells in any of the 5 fields of view that were imaged were observed, no sequencing reads for the corresponding well were observed or for which polyclonal cell populations as determined by imaging or detection of multiple sgRNAs per well were observed. Using that strategy, images of 335 clones were obtained for which the expressed intron-targeting sgRNA corresponding to the tagged protein could be identified.
Live cell imaging was performed on a PerkinElmer Opera Phenix microscope with excitation laser 488 nm, and emission filter 500-550 nm, 700 ms.
Identification of the expressed sgRNAs by in situ sequencing was performed by following and modifying published protocols, see, e.g., Feldman (2019) loc. cit; Ke (2013) Nat Methods 10, 857-60; and Larsson (2010) Nat Methods 7, 395-7. […]

[1] = clonal cell line, 1 μM (FIG. 10)

| Compound | localization of GFP-tagged AKAP8 (cell pool, FIG. 6e) | localization of GFP-tagged FUBP3 (cell pool, FIG. 6e) | localization of GFP-tagged MEAF1 (cell pool, FIG. 6e) | localization of GFP-tagged SFPQ (cell pool, FIG. 6e) | nuclear intensity of GFP-tagged UNG (cell pool, FIG. 6e) | PADI1 protein level (1 μM (FIG. 10)) | RUVBL1 protein level (1 μM (FIG. 10)) | nuclear foci of GFP-tagged DNMT1 (1 μM (FIG. 10)) | nuclear signal of GFP-tagged NUDT21 (1 μM (FIG. 10)) | nuclear signal of GFP-tagged TPI1 (1 μM (FIG. 10)) | nuclear signal of GFP-tagged transcription factor DR1 (1 μM (FIG. 10)) | localization of GFP-tagged ACLY (24 h treatment, 1 μM (FIG. 10)) | localization of GFP-tagged RPA1 [1] | localization of GFP-tagged RPA2 [1] |
| --- | --- | --- | --- | --- | --- | --- | --- | --- | --- | --- | --- | --- | --- | --- |
| Cc1sc2c(c1C)C(c1ccc(Cl)cc1)=N[C@@H](CC(=O)NCCCCCCCCNC(=O)COc1cccc3c1C(=O)N(C1CCC(=O)NC1=O)C3=O)c1nnc(C)n1-2 (some centres unmarked) [dBET6] | gain of nuclear foci | loss of subnuclear localization patterns | loss of subnuclear localization patterns | gain of nuclear foci | loss of nuclear intensity |  |  |  |  |  |  |  |  |  |
| CN(Cc1cnc2nc(N)nc(N)c2n1)c1ccc(C(=O)N[C@@H](CCC(=O)O)C(=O)O)cc1 [MTX, methotrexate] |  |  |  |  |  | decreases | decreases | disappearance of nuclear DNMT1 foci | gain of nuclear signal | gain of nuclear signal | gain of nuclear signal | increased nuclear localization | formation of nuclear foci | formation of nuclear foci |
